Among the test systems are HCC-2998 colon; NCI-H226 lung; HCT-116 colon; KM12 colon; HOP-92 NSCLC; M14 melanoma; T-47D breast; HOP-62 NSCLC; SNB-19 CNS; K-562 leukemia.
Common to all, as to test: inhibition of tumour cell growth, NCI panel, 48 h

The values below come from PubChem BioAssay (NCI).

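Results reflect a 48-hour exposure of cells in 96-well plates to compound at five concentrations. GI50 is the concentration that inhibits growth by half. Definition used: TGI = concentration required for complete inhibition of growth.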

With `COc1cc2c(cc1OC)-c1ccc3cc4c(cc3c1N(CCCn1ccnc1)C2)OCO4`, the GI50 in the experiment with HCC-2998 colon is 10.9 µM; in the experiment on NCI-H226 lung, 5.52 µM; in the experiment with HCT-116 colon, 2.93 µM; in the experiment on KM12 colon, 6.05 µM; in the experiment on HOP-92 NSCLC it was 3.58 µM; with M14 melanoma, 3.5 µM. In addition, the GI50 was 0.358 µM in the experiment with T-47D breast, 2.03 µM in the experiment with HOP-62 NSCLC and 0.79 µM in the experiment with SNB-19 CNS. The TGI with HCC-2998 colon came to 24.4 µM; in the experiment on NCI-H226 lung, 24.8 µM; with HCT-116 colon, 16.2 µM; with KM12 colon, 31.8 µM; in the experiment with HOP-92 NSCLC it was 32.5 µM; in the experiment with M14 melanoma, 15.6 µM. Besides, the TGI in the experiment on T-47D breast is 4.27 µM; in the experiment with HOP-62 NSCLC it was 13.6 µM; in the experiment on SNB-19 CNS it was 12.7 µM.
In the case of `Cc1cc(-c2nc3sccn3c2/C=N/N=C(N)N)c(C)s1`, the GI50 was 15.1 µM in the experiment on K-562 leukemia; 15.4 µM with NCI-H226 lung; 12.7 µM with HCT-116 colon; 13.3 µM in the experiment on KM12 colon; 15.8 µM in the experiment with M14 melanoma; 17.5 µM in the experiment on T-47D breast. The GI50 in the experiment on HOP-62 NSCLC is 17.4 µM; with SNB-19 CNS it was 16.2 µM. Further, the TGI in the experiment on K-562 leukemia was 39.1 µM; in the experiment with NCI-H226 lung it was 31.7 µM; in the experiment with HCT-116 colon, 25.3 µM; in the experiment with KM12 colon it was 26.1 µM; in the experiment on M14 melanoma it was 29.3 µM; in the experiment on T-47D breast, 32.8 µM. In addition, the TGI came to 32.1 µM in the experiment on HOP-62 NSCLC and 32.8 µM in the experiment with SNB-19 CNS.
Consider `O=C(O)c1ccc(Oc2nccc(-c3c(-c4ccc(F)cc4)ncn3C3CCNCC3)n2)cc1`, for which the GI50 in the experiment with HCC-2998 colon, in the experiment with K-562 leukemia, in the experiment on HCT-116 colon, with KM12 colon, with M14 melanoma and with T-47D breast was more than 25 µM throughout. The GI50 with HOP-62 NSCLC and with SNB-19 CNS was more than 25 µM in each case. Further, the TGI in the experiment with HCC-2998 colon, in the experiment on K-562 leukemia, in the experiment with HCT-116 colon, in the experiment on KM12 colon, in the experiment with M14 melanoma and in the experiment on T-47D breast was more than 25 µM each time. In addition, the TGI with HOP-62 NSCLC and with SNB-19 CNS was more than 25 µM in each case.
For the compound `CC(=C/C=C/C=C(C)\C=C\C=C(\C)C(=O)O)/C=C/C=C(/C)C(=O)O`, the TGI with K-562 leukemia, in the experiment on NCI-H226 lung, in the experiment with HCT-116 colon, in the experiment with KM12 colon, with HOP-92 NSCLC and with M14 melanoma was more than 100 µM throughout. In addition, the TGI in the experiment on T-47D breast and in the experiment on HOP-62 NSCLC was more than 100 µM each time.
In the case of `O=C1NC(=O)C(c2ccccc2Cl)=C1Nc1cc(Cl)c(O)c(Cl)c1`, the GI50 is more than 25 µM with HCC-2998 colon; 12.3 µM with K-562 leukemia; 13.6 µM in the experiment with HCT-116 colon; 12 µM in the experiment with KM12 colon; more than 19.5 µM in the experiment with M14 melanoma; more than 15.2 µM in the experiment on T-47D breast. The GI50 in the experiment on HOP-62 NSCLC is 14.5 µM; with SNB-19 CNS, more than 25 µM. Also, the TGI in the experiment with HCC-2998 colon, in the experiment with K-562 leukemia, in the experiment on HCT-116 colon, in the experiment on KM12 colon, in the experiment with M14 melanoma and in the experiment with T-47D breast was more than 25 µM throughout. In addition, the TGI in the experiment with HOP-62 NSCLC and with SNB-19 CNS was more than 25 µM in each case.
In the case of `C/C(=N\Nc1cc(C)c2ccccc2n1)c1ccccn1`, the GI50 was less than 0.0445 µM with HCC-2998 colon; 0.0865 µM in the experiment on K-562 leukemia; 0.225 µM in the experiment on NCI-H226 lung; less than 0.0401 µM with HCT-116 colon; 0.0789 µM in the experiment on KM12 colon; 0.066 µM in the experiment on M14 melanoma. Further, the GI50 with T-47D breast is less than 0.0208 µM; in the experiment on HOP-62 NSCLC, 0.07 µM; with SNB-19 CNS, 0.159 µM. The TGI was 2.15 µM in the experiment with HCC-2998 colon; 1.5 µM in the experiment on K-562 leukemia; 2.71 µM in the experiment on NCI-H226 lung; 1.29 µM in the experiment with HCT-116 colon; 1.76 µM with KM12 colon; 1.2 µM in the experiment on M14 melanoma. Moreover, the TGI in the experiment on T-47D breast is 2.78 µM; in the experiment with HOP-62 NSCLC it was 1.37 µM; with SNB-19 CNS, 13.6 µM.
Turning to `C=C1C(C2(C)C(OC(C)=O)CC(=O)OC(C)(COC(C)=O)C2CC(=O)OC)C(OC=O)C(OC(=O)C(O)C(C)CC)C2(C)C(c3ccoc3)CC(=O)C12O` (stereo unspecified), the TGI in the experiment on K-562 leukemia was more than 31.6 µM; in the experiment with NCI-H226 lung, more than 100 µM; with HCT-116 colon, more than 100 µM; with KM12 colon, more than 100 µM; in the experiment on HOP-92 NSCLC, more than 100 µM; with M14 melanoma, more than 100 µM. For the same compound, the TGI in the experiment with T-47D breast, in the experiment on HOP-62 NSCLC and with SNB-19 CNS was more than 100 µM in each case.
Turning to `CC1=C(C(=O)Nc2ccc(Cl)c(Cl)c2)C(c2cccc(Cl)c2)NC(=O)N1` (stereo unspecified), the GI50 in the experiment with K-562 leukemia was 13.6 µM; with NCI-H226 lung, 7.69 µM; in the experiment on HCT-116 colon it was 12 µM; with KM12 colon, 0.239 µM; in the experiment with HOP-92 NSCLC it was 18.3 µM; in the experiment on M14 melanoma, 7.79 µM. In addition, the GI50 is 19.2 µM in the experiment with T-47D breast, 10.4 µM with HOP-62 NSCLC and 9.52 µM with SNB-19 CNS. The TGI was 48.4 µM in the experiment on K-562 leukemia; 18.6 µM with NCI-H226 lung; more than 50 µM in the experiment with HCT-116 colon; 2.48 µM in the experiment on KM12 colon; more than 28.7 µM with HOP-92 NSCLC; 16.1 µM in the experiment on M14 melanoma. The TGI with T-47D breast is more than 50 µM; with HOP-62 NSCLC it was 20.5 µM; in the experiment with SNB-19 CNS, 21 µM.
For the compound `c1cc(N2CCCN(c3ccc(C4=NCCCN4)cc3)CC2)ccc1C1=NCCCN1`, the GI50 in the experiment with K-562 leukemia is 88 µM; in the experiment on NCI-H226 lung, more than 100 µM; in the experiment with HCT-116 colon it was more than 100 µM; with KM12 colon, more than 100 µM; in the experiment on HOP-92 NSCLC it was more than 100 µM; in the experiment on M14 melanoma, more than 100 µM. In addition, the GI50 with T-47D breast, in the experiment with HOP-62 NSCLC and in the experiment with SNB-19 CNS was more than 100 µM each time. Further, the TGI in the experiment on K-562 leukemia, with NCI-H226 lung, with HCT-116 colon, in the experiment on KM12 colon, with HOP-92 NSCLC and in the experiment with M14 melanoma was more than 100 µM each time. In addition, the TGI in the experiment with T-47D breast, in the experiment on HOP-62 NSCLC and in the experiment with SNB-19 CNS was more than 100 µM each time.
For the compound `Cc1cccc(C)c1CO`, the TGI with HCC-2998 colon, in the experiment on K-562 leukemia, in the experiment with NCI-H226 lung, with HCT-116 colon, in the experiment with KM12 colon and with HOP-92 NSCLC was more than 100 µM each time. The TGI in the experiment on M14 melanoma, in the experiment with HOP-62 NSCLC and with SNB-19 CNS was more than 100 µM in each case.
As for `O=C1c2ccccc2-c2oc(=O)c3ccccc3c21`, the TGI in the experiment on NCI-H226 lung, in the experiment on HCT-116 colon, with KM12 colon, in the experiment with HOP-92 NSCLC, in the experiment on M14 melanoma and with T-47D breast was more than 100 µM throughout. In addition, the TGI in the experiment with HOP-62 NSCLC and in the experiment with SNB-19 CNS was more than 100 µM each time.
`CC(C)[O-].CC(C)[O-].O=C1C=C([O-])C(=O)c2ccccc21.O=C1C=C([O-])C(=O)c2ccccc21.[Ti+4]`: the GI50 in the experiment on HCC-2998 colon was more than 91.7 µM; with K-562 leukemia, more than 89.4 µM; in the experiment with NCI-H226 lung, 63.9 µM; with HCT-116 colon it was 43.7 µM; in the experiment on KM12 colon, more than 81.4 µM; with HOP-92 NSCLC, more than 100 µM. Moreover, the results for the GI50 with M14 melanoma, in the experiment with HOP-62 NSCLC and in the experiment with SNB-19 CNS were 17.8 µM, more than 100 µM and more than 100 µM, respectively. Further, the TGI in the experiment with HCC-2998 colon, with K-562 leukemia, in the experiment on NCI-H226 lung, with HCT-116 colon, with KM12 colon and with HOP-92 NSCLC was more than 100 µM in each case. For the same compound, the TGI in the experiment on M14 melanoma, in the experiment on HOP-62 NSCLC and with SNB-19 CNS was more than 100 µM throughout.
Regarding `O=C(CCc1nnc2s/c(=C\c3ccc(Cl)c(Cl)c3)c(=O)n12)Nc1ccc(Cl)c(Cl)c1`, the TGI with HCC-2998 colon, in the experiment on K-562 leukemia, in the experiment with NCI-H226 lung, in the experiment on HCT-116 colon, in the experiment on KM12 colon and with HOP-92 NSCLC was more than 100 µM each time. The TGI in the experiment on M14 melanoma, in the experiment with HOP-62 NSCLC and in the experiment on SNB-19 CNS was more than 100 µM each time.
`COc1ccc(NC(=O)CC/C(CC(=O)C(C)(C)C)=N\NC(=O)C(=O)NN)cc1`: the TGI in the experiment on HCC-2998 colon, in the experiment with K-562 leukemia, in the experiment with NCI-H226 lung, in the experiment with HCT-116 colon, with KM12 colon and in the experiment on HOP-92 NSCLC was more than 100 µM in each case. Besides, the TGI with M14 melanoma, with HOP-62 NSCLC and in the experiment with SNB-19 CNS was more than 100 µM in each case.
For the compound `Cc1ccc(NC2=C(Cl)C(=O)N(Cc3ccc(Cl)cc3)C2=O)cc1O`, the GI50 is 61.8 µM with K-562 leukemia; 2.55 µM in the experiment with NCI-H226 lung; 6.57 µM in the experiment with HCT-116 colon; 13.8 µM in the experiment on KM12 colon; 13.8 µM with M14 melanoma; 10.7 µM with T-47D breast. The GI50 is 9.99 µM with HOP-62 NSCLC and 10.8 µM with SNB-19 CNS. Also, the TGI is more than 100 µM in the experiment on K-562 leukemia; 13.3 µM in the experiment on NCI-H226 lung; 29 µM in the experiment on HCT-116 colon; 39.6 µM in the experiment with KM12 colon; 38 µM in the experiment on M14 melanoma; 42.6 µM in the experiment with T-47D breast. Further, the TGI in the experiment with HOP-62 NSCLC came out at 26.4 µM; with SNB-19 CNS, 39 µM.
